# Test results published in US11731977B2, “SGC stimulators” (Cyclerion Therapeutics, Inc., priority 2016, dated 2023).
# Marks after values point to notes of the source that are not given here.
# How the values were obtained:
# [1] = Dog cerebrospinal fluid (CSF) pharmacokinetic properties (Example 5); assay type: in vivo; settings: male, beagle, 1 mg/kg PO
# Procedure: Protocol PK in dogs was determined following oral dosing. A group of 4 male beagle dogs were used and the dogs were dosed with 1 mg/kg of a compound formulated as a suspension in 1% HPMC E5, 0.2% Tween 80, and 0.5% MC in water. PO doses were administered by oral gavage in a gelatin capsule and delivered to the stomach using a gavage tube. Following oral dosage administration, the gavage tube was flushed with approximately 10 mL of water to ensure complete delivery of the full dose.
# Plasma and CSF samples were collected as follows: samples of CSF and blood were collected at 1, 2, 4 and 8 hours post PO dosing. CSF samples (0.05 mL) were collected from the lumbosacral region (L4/5) via direct needle puncture at the appropriate time points. Blood samples (0.25 mL) were collected via cephalic vein. These samples were kept on ice until processed for plasma. Blood samples were centrifuged at 3200 rpm for 5 minutes at approximately 5° C. within 1 hour of collection. Plasma was directly transferred to a 96-well plate tube (0.125 mL). Plug caps were placed on the tubes and the tubes frozen at approximately −70° C. and stored until analysis. Plasma was collected and analyzed for the presence of a compound.
# Quantitation of Compounds. The compound of the invention and the internal standard were extracted from plasma and CSF by precipitation. Samples were analyzed using liquid chromatography (LC) with tandem mass spectrometric detection (MS/MS) using electrospray ionization. The standard curve range was from 1 to 1000 ng/mL. Results of the compounds described herein in this assay are illustrated in Tables 5a and 5b below (1 mg/kg dose).
# Kp,uu is defined as the concentration ratio of unbound drug in CSF to unbound drug in plasma. Unbound drug in plasma (or free plasma concentration) is calculated by multiplying the total plasma concentration by the unbound fraction as determined by plasma protein binding. The CSF concentration is then divided by the free plasma concentration to determine the Kp,uu. (See e.g., Di et al., J. Med. Chem 56, 2-12 (2013))
# [2] = tested on: rats; test: Acute and tonic pain: acetic acid test, abdominal cramps (Example 13); settings: Compound I-1 p.o. 10 mg/kg, 120 minutes after treatment
# Procedure: Acetic Acid Test. Abdominal contraction was induced by intraperitoneal injection of 0.6% acetic acid solution in rats (10 mL/kg). The number of writhing (a twisting or contorting of the body due to pain) was recorded from the 5th to the 15th minute after injection.
# Testing: 120 minutes after treatment. N=4/model/test. Results are expressed for each group as a percentage of activity calculated from the mean value of the vehicle-treated animals and compared to naïve animals, control paw, or cut-off value, depending on the test.
# [3] = tested on: rats; test: Inflammatory pain: carrageenan, paw pressure test (Example 13); assay type: in vivo, rat; settings: Compound I-1 p.o. 10 mg/kg, 120 minutes after treatment
# [4] = tested on: cGMP in mouse brain; test: Compound-induced cGMP in mouse brain (Example 9); assay type: in vivo; settings: 30 min after dosing
# Procedure: Objective. To determine the effect of different doses of a compound of the invention in cGMP response and compound concentration in different areas of the mouse brain (cortex, hippocampus, cerebellum and striatum) and compound concentration in blood
# Protocol. Mice (n=7-8 per experimental condition) were dosed PO with vehicle (1% hydroxypropyl methyl cellulose, 0.2% Tween80, 0.5% methyl cellulose) or 0.3, 1, 3 or 10 mg/Kg of Compound I-1 prepared in vehicle. Thirty minutes after dosing, under isoflurane anesthesia, the mouse was decapitated and the brain was removed and placed into an ice-cold petri dish containing slushy dissection solution (saturated with 95% O2·5% CO2). Using an ice-cold spatula, the brain was transferred to mouse brain matrix with coronal spacing for slicing at 1 mm intervals, as shown in FIG. 5 (not to scale, just a scheme).
# The sliced brain was transferred back into petri dish containing slushy dissection solution with IBMX 0.5 mM (saturated with 95% O2/5% CO2). The dorsal striatum is dissected first, followed by the hippocampus second, followed by the medial prefrontal cortex third, and lastly, the cerebellum fourth. After each region is dissected the dissected tissue was immediately placed into an eppendorf that was placed on dry ice for the previous 30 minutes. Small pieces of tissue froze very fast, within 10 seconds approximately. After all regions were placed in an eppendorf, the eppendorfs were then snap frozen by immersion into liquid nitrogen. The whole blood sample was collected from the trunk area using mitra tips. Tissue samples were stored in the −80° C. and mitra tips at room temperature. cGMP and compound levels in brain and blood were determined by LC/MS; protein quantification of brain samples was determined using BCA protein assay kit.
structure (smiles),measurement,setting,value
"Fc1ccccc1Cc1nc(-c2nc(C(F)(F)F)n[nH]2)cn2ccnc12 [Compound I-1, 8-(2-fluorobenzyl)-6-(3-(trifluoromethyl)-1H-1,2,4-triazol-5-yl)imidazo[1,2-a]pyrazine]",Kp uu at 1 h,"[1]; CSF / unbound plasma, @ 1 h",0.7
same,Kp uu at 2 h,"[1]; CSF / unbound plasma, @ 2 h",0.7
same,Kp uu at 4 h,"[1]; CSF / unbound plasma, @ 4 h",0.7
same,Kp uu at 8 h,"[1]; CSF / unbound plasma, @ 8 h",0.4
same,concentration at 1 h,"[1]; CSF, @ 1 h, read-out: CSF Conc.",34 nM
same,concentration at 2 h,"[1]; CSF, @ 2 h, read-out: CSF Conc.",34 nM
same,concentration at 4 h,"[1]; CSF, @ 4 h, read-out: CSF Conc.",19 nM
same,concentration at 8 h,"[1]; CSF, @ 8 h, read-out: CSF Conc.",2.4 nM
same,% of activity vs. vehicle,[2],7%
same,% of activity vs. vehicle,[3],38%
same,CEREBELLUM nM cGMP/μg protein,[4]; 0.3 MPK PO,0.3199 nM cGMP/μg protein
same,CORTEX nM cGMP/μg protein,[4]; 0.3 MPK PO,0.07761 nM cGMP/μg protein
same,Hippocampus nM cGMP/μg protein,[4]; 0.3 MPK PO,0.04255 nM cGMP/μg protein
same,STRIATUM nM cGMP/μg protein,[4]; 0.3 MPK PO,0.02261 nM cGMP/μg protein
same,CEREBELLUM nM cGMP/μg protein,[4]; 1 MPK PO,0.4577 nM cGMP/μg protein
same,CORTEX nM cGMP/μg protein,[4]; 1 MPK PO,0.08064 nM cGMP/μg protein
same,Hippocampus nM cGMP/μg protein,[4]; 1 MPK PO,0.04302 nM cGMP/μg protein
same,STRIATUM nM cGMP/μg protein,[4]; 1 MPK PO,0.03124 nM cGMP/μg protein
same,CEREBELLUM nM cGMP/μg protein,[4]; 3 MPK PO,0.7524 nM cGMP/μg protein
same,CORTEX nM cGMP/μg protein,[4]; 3 MPK PO,0.1081 nM cGMP/μg protein
same,Hippocampus nM cGMP/μg protein,[4]; 3 MPK PO,0.0519 nM cGMP/μg protein
same,STRIATUM nM cGMP/μg protein,[4]; 3 MPK PO,0.03719 nM cGMP/μg protein
same,CEREBELLUM nM cGMP/μg protein,[4]; 10 MPK PO,1.796**** nM cGMP/μg protein
same,CORTEX nM cGMP/μg protein,[4]; 10 MPK PO,0.1734* nM cGMP/μg protein
same,Hippocampus nM cGMP/μg protein,[4]; 10 MPK PO,0.1171** nM cGMP/μg protein
same,STRIATUM nM cGMP/μg protein,[4]; 10 MPK PO,0.04612* nM cGMP/μg protein
